From EP4810579A1, “AQUEOUS COATING COMPOSITION” (Chugoku Marine Paints, Ltd., priority 2023, dated 2025)

Assay: Aqueous solubility of organic solvent, EPA830.7840 flask shaking method
Assay type: physicochemical
Details: 1 atm and 23°C
Excerpt: The upper limit of the aqueous solubility of the organic solvent (B) is not particularly limited. The organic solvent (B) may be, for example, a water-miscible organic solvent that can be mixed with water in an arbitrary amount. […] The aqueous solubility of the organic solvent (B) represents the maximum amount (g) of the organic solvent dissolved in 100 g of water.

| Aqueous solubility | amount of the organic solvent dissolved in 100 g of water | SMILES |
| --- | --- | --- |
| 4 g/100 g of water | 4 g | OCc1ccccc1 [Benzyl alcohol] |
| miscible |  | COCC(C)O (stereo not drawn) [Propylene glycol monomethyl ether] |
| miscible |  | COC(C)COC(C)CO (stereo not drawn) [Dipropylene glycol monomethyl ether] |
|  | miscible | COC(C)COC(C)COC(C)CO (stereo not drawn) [tripropylene glycol monomethyl ether] |
| 3 g/100 g of water | 3 g | CCCCOC(C)COC(C)COC(C)CO (stereo not drawn) [Tripropylene glycol monobutyl ether] |
| miscible | miscible | CCCCOCCOCCO [Diethylene glycol monobutyl ether] |
| 18 g/100 g of water | 18 g | CCCOC(C)COC(C)CO (stereo not drawn) [Dipropylene glycol monopropyl ether] |

| SMILES | Aqueous solubility | amount of the organic solvent dissolved in 100 g of water |
| --- | --- | --- |
| OCCOc1ccccc1 [ethylene glycol monophenyl ether] |  | 2.3 g |
